Experimental data published in ChEMBL document CHEMBL5331077, “Combining pharmacophore models derived from DNA-encoded chemical libraries with structure-based exploration to predict Tankyrase 1 inhibitors” (Eur J Med Chem, 2023).

Legend:
[1] = biological target: Poly [ADP-ribose] polymerase 1 (Homo sapiens) (UniProt P09874); assay: Inhibition of human PARP1 at 50 nM relative to control
[2] = biological target: T1, Poly [ADP-ribose] polymerase tankyrase-2 (Homo sapiens) (UniProt Q9H2K2); assay: Inhibition of TNKS2 (unknown origin) at 50 nM relative to control
T1 sequence (whole entry): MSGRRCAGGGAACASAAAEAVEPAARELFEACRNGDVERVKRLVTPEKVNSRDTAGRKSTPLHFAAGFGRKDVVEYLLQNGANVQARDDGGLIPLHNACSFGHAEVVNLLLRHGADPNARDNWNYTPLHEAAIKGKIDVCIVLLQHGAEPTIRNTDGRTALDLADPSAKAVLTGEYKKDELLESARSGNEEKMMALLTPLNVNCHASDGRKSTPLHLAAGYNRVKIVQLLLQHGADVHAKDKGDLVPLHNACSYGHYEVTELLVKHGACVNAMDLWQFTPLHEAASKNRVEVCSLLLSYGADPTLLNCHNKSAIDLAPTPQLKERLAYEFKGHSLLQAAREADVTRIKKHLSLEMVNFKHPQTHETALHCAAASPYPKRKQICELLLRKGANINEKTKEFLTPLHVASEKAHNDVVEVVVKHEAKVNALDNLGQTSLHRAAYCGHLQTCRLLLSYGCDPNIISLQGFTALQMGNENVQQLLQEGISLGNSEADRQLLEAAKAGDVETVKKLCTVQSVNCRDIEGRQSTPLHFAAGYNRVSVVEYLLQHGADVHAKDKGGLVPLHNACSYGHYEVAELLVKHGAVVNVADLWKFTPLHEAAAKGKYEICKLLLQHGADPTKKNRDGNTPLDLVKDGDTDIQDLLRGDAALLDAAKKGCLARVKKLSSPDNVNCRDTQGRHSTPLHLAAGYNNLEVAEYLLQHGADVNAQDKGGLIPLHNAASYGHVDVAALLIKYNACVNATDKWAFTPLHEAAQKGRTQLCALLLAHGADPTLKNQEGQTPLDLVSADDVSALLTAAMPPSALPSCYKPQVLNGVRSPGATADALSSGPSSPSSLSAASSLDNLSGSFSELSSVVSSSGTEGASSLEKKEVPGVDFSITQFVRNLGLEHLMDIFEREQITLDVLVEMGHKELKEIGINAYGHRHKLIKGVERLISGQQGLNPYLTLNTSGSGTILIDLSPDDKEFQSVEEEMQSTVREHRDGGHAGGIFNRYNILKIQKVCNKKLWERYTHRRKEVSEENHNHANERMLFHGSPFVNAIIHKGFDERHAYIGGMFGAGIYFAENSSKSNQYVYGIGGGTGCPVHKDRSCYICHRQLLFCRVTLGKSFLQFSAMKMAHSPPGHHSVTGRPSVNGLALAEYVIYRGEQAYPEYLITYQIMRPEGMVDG

[3] = biological target: T1, Poly [ADP-ribose] polymerase tankyrase-2 (Homo sapiens); assay: Inhibition of TNKS2 (unknown origin) at 0.5 uM relative to control
[4] = biological target: Poly [ADP-ribose] polymerase 1 (Homo sapiens) (UniProt P09874); assay: Inhibition of human PARP1 at 0.5 uM relative to control
[5] = biological target: Poly [ADP-ribose] polymerase 2 (Homo sapiens) (UniProt Q9UGN5); assay: Inhibition of human PARP2 at 0.5 uM relative to control
Sequence of Poly [ADP-ribose] polymerase 2 (Homo sapiens) (Q9UGN5 whole entry): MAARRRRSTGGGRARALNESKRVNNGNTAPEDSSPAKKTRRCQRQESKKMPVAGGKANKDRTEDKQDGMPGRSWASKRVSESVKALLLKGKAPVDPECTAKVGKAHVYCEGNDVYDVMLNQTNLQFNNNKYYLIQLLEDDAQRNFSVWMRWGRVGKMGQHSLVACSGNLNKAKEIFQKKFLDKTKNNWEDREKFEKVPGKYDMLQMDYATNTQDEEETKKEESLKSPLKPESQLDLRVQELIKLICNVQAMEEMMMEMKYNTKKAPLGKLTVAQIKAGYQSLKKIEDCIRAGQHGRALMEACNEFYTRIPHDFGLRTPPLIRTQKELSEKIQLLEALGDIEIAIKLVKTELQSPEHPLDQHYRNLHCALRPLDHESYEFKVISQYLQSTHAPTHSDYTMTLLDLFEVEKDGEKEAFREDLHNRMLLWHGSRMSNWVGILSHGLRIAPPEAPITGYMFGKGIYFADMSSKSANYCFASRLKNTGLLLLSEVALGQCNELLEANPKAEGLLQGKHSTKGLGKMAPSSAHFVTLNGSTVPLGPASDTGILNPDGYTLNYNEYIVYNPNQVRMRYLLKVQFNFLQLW

[6] = biological target: T2, Poly [ADP-ribose] polymerase tankyrase-1 (Homo sapiens, UniProt O95271); assay: Inhibition of TNKS1 (unknown origin) using biotinylated NAD as substrate preincubated for 30 mins followed by substrate addition and measured after 1 hr by BioTek synergy 2 microplate reader analysis
T2 sequence (O95271 whole entry): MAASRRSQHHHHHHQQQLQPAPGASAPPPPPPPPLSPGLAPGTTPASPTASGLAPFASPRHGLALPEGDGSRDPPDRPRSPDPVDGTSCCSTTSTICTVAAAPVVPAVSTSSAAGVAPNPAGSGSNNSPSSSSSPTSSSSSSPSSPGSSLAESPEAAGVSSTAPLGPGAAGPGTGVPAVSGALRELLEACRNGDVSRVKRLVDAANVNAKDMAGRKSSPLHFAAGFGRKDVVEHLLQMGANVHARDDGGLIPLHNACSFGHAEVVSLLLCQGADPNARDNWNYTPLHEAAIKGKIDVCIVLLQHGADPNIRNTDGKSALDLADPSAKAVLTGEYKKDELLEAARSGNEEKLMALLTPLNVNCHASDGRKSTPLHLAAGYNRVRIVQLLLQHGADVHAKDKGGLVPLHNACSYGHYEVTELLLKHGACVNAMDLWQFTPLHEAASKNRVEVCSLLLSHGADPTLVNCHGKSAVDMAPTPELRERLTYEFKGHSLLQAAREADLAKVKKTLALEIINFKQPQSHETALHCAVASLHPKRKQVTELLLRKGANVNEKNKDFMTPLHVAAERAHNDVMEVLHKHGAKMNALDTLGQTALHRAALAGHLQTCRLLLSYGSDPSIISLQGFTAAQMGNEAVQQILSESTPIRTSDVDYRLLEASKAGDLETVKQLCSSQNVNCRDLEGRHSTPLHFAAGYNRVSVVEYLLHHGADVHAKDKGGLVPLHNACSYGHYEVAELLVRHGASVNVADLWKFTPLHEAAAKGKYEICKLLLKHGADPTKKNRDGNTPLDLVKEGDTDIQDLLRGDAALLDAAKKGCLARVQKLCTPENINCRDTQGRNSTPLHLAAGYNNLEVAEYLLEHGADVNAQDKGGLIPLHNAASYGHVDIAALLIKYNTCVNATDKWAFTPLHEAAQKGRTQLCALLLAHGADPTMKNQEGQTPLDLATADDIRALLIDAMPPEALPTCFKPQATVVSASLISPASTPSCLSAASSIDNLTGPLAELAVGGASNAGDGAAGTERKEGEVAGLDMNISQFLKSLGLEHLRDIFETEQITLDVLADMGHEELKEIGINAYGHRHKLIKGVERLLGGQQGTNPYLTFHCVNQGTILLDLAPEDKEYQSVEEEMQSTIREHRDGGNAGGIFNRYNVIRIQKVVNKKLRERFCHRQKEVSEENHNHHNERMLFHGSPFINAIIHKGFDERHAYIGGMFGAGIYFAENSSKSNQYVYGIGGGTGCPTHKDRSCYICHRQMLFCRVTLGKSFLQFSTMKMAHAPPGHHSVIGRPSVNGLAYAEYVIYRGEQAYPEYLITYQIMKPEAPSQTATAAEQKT

[7] = biological target: Poly [ADP-ribose] polymerase 2 (Homo sapiens) (UniProt Q9UGN5); assay: Inhibition of human PARP2 at 50 nM relative to control
[8] = biological target: T3, Poly [ADP-ribose] polymerase tankyrase-1 (Homo sapiens) (UniProt O95271); assay: Inhibition of TNKS1 (unknown origin) at 100 nM using biotinylated NAD as substrate preincubated for 30 mins followed by substrate addition and measured after 1 hr by BioTek synergy 2 microplate reader analysis relative to control; conditions: time 90.0 min
T3 sequence (whole entry): T2 sequence (O95271 whole entry)

[9] = biological target: T3, Poly [ADP-ribose] polymerase tankyrase-1 (Homo sapiens); assay: Inhibition of TNKS1 (unknown origin) at 10 uM using biotinylated NAD as substrate preincubated for 30 mins followed by substrate addition and measured after 1 hr by BioTek synergy 2 microplate reader analysis relative to control; conditions: time 90.0 min

Sequence of Poly [ADP-ribose] polymerase 1 (Homo sapiens) (P09874 whole entry): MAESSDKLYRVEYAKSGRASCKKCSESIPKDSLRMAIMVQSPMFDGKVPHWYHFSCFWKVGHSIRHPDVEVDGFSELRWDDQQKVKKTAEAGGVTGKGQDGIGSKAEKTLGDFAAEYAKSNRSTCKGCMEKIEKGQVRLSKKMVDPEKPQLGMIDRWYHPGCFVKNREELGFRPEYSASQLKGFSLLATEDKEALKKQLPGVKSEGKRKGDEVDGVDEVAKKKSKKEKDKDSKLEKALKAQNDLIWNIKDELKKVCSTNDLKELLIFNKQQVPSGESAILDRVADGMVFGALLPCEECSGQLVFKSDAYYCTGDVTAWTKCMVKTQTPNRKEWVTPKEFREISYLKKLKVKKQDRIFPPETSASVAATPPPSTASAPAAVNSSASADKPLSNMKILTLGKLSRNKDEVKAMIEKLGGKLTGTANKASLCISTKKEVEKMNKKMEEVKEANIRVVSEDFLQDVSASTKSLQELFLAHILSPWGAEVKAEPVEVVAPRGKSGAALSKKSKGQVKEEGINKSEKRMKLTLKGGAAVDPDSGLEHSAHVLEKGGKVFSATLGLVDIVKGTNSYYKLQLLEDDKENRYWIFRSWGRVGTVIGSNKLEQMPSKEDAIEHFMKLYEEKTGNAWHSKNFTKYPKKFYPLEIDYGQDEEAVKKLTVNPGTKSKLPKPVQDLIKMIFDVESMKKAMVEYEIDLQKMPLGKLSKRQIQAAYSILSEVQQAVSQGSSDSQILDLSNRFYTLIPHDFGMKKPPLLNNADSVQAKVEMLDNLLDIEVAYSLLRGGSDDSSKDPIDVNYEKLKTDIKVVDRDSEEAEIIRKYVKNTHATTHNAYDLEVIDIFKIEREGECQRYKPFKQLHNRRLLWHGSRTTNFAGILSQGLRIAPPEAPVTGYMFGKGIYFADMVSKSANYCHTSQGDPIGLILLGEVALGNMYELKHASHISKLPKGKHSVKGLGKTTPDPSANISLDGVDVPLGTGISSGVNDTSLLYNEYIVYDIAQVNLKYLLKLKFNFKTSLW

| IC50 [6] [nM] | inhibition [9] [%] | Compound | other results |
| --- | --- | --- | --- |
| 69 | – | O=C(NCCNC(=O)c1n[nH]c(=O)c2ccccc12)c1cccc(CN2C(=O)CNC2=O)c1 | inhibition [1]: 17%; inhibition [2]: 49%; inhibition [3]: 93%; inhibition [4]: 47%; inhibition [5]: 53%; inhibition [7]: 3% |
| 15 | – | COc1ccc2c(c1)C(CC(=O)NCCNC(=O)CCn1c(=O)[nH]c(=O)c3ccccc31)CC2=O (stereo not drawn) | – |
| – | 7 | Cc1ccc(C)c(NC(=O)CSc2nnc(Cc3cc(=O)[nH]c(=O)[nH]3)n2-c2ccc(Cl)cc2)c1 | inhibition [8]: 0% |
| 4900 | – | CC(=O)N1CCC[C@H]1C(=O)NCCNC(=O)Cn1[nH]c(=O)c2ccccc2c1=O | – |
| 140 | – | CNC(=O)[C@H](CNC(=O)Cn1[nH]c(=O)c2ccccc2c1=O)NC(=O)c1cnc(C)cn1 | – |
| – | 74 | O=C(NCc1ccc(-c2ccc3c(c2)CCCO3)cc1)c1nc2ccccc2c(=O)[nH]1 | – |
| 47 | – | Cc1cnc(C(=O)NCCNC(=O)Cn2[nH]c(=O)c3ccccc3c2=O)cn1 | inhibition [1]: 14%; inhibition [2]: 49%; inhibition [3]: 92%; inhibition [4]: 52%; inhibition [5]: 52%; inhibition [7]: 0% |
| 75 | – | Cc1ccc2c(c1)NC(=O)C2CC(=O)NCCNC(=O)CCn1c(=O)[nH]c(=O)c2ccccc21 (stereo not drawn) | – |
| – | 5 | O[C@H](c1ccccc1)c1cn(C2CCN(Cc3cnc4ccccc4c3)CC2)nn1 | – |
| – | 97 | COc1ccc(C(N)=O)cc1NC(=O)c1cccc(-c2cnc3[nH]c(=O)n(C)c3c2)c1 | inhibition [8]: 3% |
| – | 0 | O=C(Cn1cnc2ccccc2c1=O)N1CCC(c2nnc(-c3ccco3)s2)CC1 | – |
| 22 | 100 | O=C(Cc1n[nH]c(=O)c2ccccc12)OCC(=O)N1CCN(c2ccccn2)CC1 | inhibition [8]: 78% |
| – | 67 | O=C(CCc1nc2ccccc2c(=O)[nH]1)Nc1ccc(-n2cnnn2)cc1 | – |
| 26000 | – | CC(=O)N1CCC[C@H]1C(=O)NCCNC(=O)CCn1c(=O)[nH]c(=O)c2ccccc21 | – |
| 8.3 | – | O=C(CCn1c(=O)[nH]c(=O)c2ccccc21)NCCNC(=O)c1cnc2ccccc2c1 | – |
| – | 35 | O=C(Cc1n[nH]c(=O)c2ccccc12)Nc1ccc(Cc2nc3ccccc3s2)cc1 | – |

| Compound | IC50 [6] [nM] | inhibition [9] [%] | other results |
| --- | --- | --- | --- |
| CNC(=O)[C@H](CNC(=O)c1cccc(COc2ccccc2C(N)=O)c1)NC(=O)COc1cc(C)cc2oc(=O)c3c(c12)CCC3 | 33 | – | – |
